Data reported in patent US20130059850A1, “AZA-INDOLE DERIVATIVES USEFUL AS MODULATORS OF FAAH” (MERCK SHARP & DOHME CORP., priority 2010, published 2013).
Several values for one entry are separate records, joined by “and”; a condition that tells them apart may be missing. Equal entries are not always repeated.

Columns and labels:
[1] = target: T1, human FAAH (Fatty Acid Amide Hydrolase) (Homo sapiens, UniProt O00519); assay: FAAH whole cell assay on CHO cells expressing human FAAH (human WC), AAMCA fluorescent substrate; type: cell-based; settings: human FAAH_CHO whole cell
T1 construct: The full length FAAH was subcloned into the mammalian expression vector, pcDEF.neo, using XbaI and EcoRI restriction sites; expressed in transfected cells
T1 sequence (O00519 1-579): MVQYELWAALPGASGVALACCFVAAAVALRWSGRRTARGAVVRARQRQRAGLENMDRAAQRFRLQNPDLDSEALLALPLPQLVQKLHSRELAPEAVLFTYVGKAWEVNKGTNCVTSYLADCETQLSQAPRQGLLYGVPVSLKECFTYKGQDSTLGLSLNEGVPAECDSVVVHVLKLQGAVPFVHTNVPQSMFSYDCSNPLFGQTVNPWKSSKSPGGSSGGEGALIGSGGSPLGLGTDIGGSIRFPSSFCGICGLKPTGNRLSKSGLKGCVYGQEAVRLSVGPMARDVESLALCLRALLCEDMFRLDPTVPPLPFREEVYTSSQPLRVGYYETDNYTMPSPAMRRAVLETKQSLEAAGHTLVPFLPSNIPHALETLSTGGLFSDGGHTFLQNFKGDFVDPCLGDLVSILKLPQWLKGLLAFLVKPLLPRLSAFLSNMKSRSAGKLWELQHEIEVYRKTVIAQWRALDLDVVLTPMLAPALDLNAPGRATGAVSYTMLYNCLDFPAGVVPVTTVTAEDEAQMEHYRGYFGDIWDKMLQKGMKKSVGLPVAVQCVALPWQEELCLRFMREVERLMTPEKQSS
From the text: (§1) To assist in assay development stable cell lines for human, murine and rat full length FAAH were developed. Human FAAH cDNA (Accession No: NM_001441.1) was purchased from Origene (Rockville, Md.). The full length FAAH was subcloned into the mammalian expression vector, pcDEF.neo, using XbaI and EcoRI restriction sites and used for stable cell line generation.
Murine (accession number NM_010173) and Rat FAAH (accession number NM_024132) was amplified by reverse transcriptase polymerase chain reaction (RT-PCR) from brain cDNA (BD Biosciences, San Jose, Calif.) using primers 1 and 2 or primers 1 and 3 respectively (see Table). The resulting PCR product was ligated into pCR4 TOPO and DNA sequence confirmed. The full length murine FAAH was subcloned into the mammalian expression vector, pcDEFneo using either EcoRI (murine) or KpnI and EcoRI (rat) restriction sites. Chinese hamster ovary cells (CHO) were transfected following manufacturers protocol (AMAXA). Forty eight hours post transfection, cells were trypsinized and transferred to 96 well plates in Iscove's DMEM media supplemented with 2 mM Glutamine, 10% fetal calf serum, 1 mg/ml geneticin and HT Supplement (0.1 mM sodium hypoxanthine, 0.016 mM thymidine) in order to isolate single clones. Following selection in geneticin, individual clones were selected and FAAH activity was assessed using a whole cell fluorescent anandamide assay, modified from Ramarao et al (2005). Following removal of tissue culture media cells were dislodged following addition of Cellstripper (Mediatech, Inc. Manassas, Va.) and transferred to 96 well black clear bottom assay plate, centrifuged at 1,000 rpm for 3 mins and media removed and replaced with assay buffer (50 mM Tris pH8.0, 1 mM EDTA, 0.1% fatty acid free BSA). The reaction was initiated by addition of fluorescent substrate, AMC Arachidonoyl Amide (Cayman Chemical, Ann Arbor, Mich.) to 1 μM and reaction allowed to proceed for 2 hours at room temperature. Release of fluorescence was monitored in a CytoFluor Multiplate Reader. Cells expressing the highest amount of FAAH activity were selected for study with FAAH inhibitors.
(§2) (American Radiolabeled Chemicals; 1 mCi/ml) with FAAH (Life Sciences (1995), 56, 1999-2005 and Journal of Pharmacology and Experimented Therapeutics (1997), 283, 729-734), Analytical. Biochemistry (2003), 318, 270-5. In addition, routine assays were performed monitoring hydrolysis of arachidonyl-7-amino-4-methylcoumarin amide (AAMCA) by following increase in fluorescence upon release of 7-amino 4-methyl coumarin (λEX=355 nm, μEM=460 nm). Analytical. Biochemistry (2005). 343, 143-51
Assays are performed on either cell lysate or microsome fractions prepared as described or in whole cell format employing either the fluorescent substrate AAMCA (Cayman chemical, Ann Arbor, Mich.,) or ^3H-anandamide ([ETHANOLAMINE-1-3H] American Radiolabeled Chemicals; 1 mCi/ml). The cell lysate or microsome assay is performed in black PerkinElmer OptiPlates-384F by adding FAAH_CHO (whole cell (human whole cell or human WC), cell lysate (human cell lysate or human LY) or microsome) in assay buffer (50 mM Phosphate, pH 8.0, 1 mM EDTA, 200 mM KCl, 0.2% glycerol, 0.1% fatty acid free BSA) to each well, followed by either DMSO or compound and allowed to incubate at 22-25° C. for fifteen minutes. AAMCA substrate was used to achieve a final concentration of 1 μM and reaction allowed to proceed at room temperature for 1-3 hours. Fluorescent release as a measure of FAAH activity was monitored by reading the plate in a Envision plate Reader (Ex: 360/40 nM; Em: 460/40 nM). Whole cell assay is conducted with cells harvested after rinsing tissue culture flasks three times with Ca^++Mg^++ free PBS, incubating for […] in Enzyme free dissociation media and centrifuging for 5 minutes at 1,000 rpm in table top centrifuge. […]

[2] = target: T1, human FAAH (Fatty Acid Amide Hydrolase); assay: FAAH enzyme assay on CHO cell lysate expressing human FAAH (human LY), AAMCA fluorescent substrate; type: biochemical; settings: human FAAH_CHO cell lysate
From the text: as §1
CHO cells expressing FAAH were used to prepare either crude cell lysate or microsome fractions. To harvest cells, tissue culture media was decanted, the monolayer washed three times with Ca^++Mg^++ free PBS and cells recovered after […] in enzyme free dissociation media (Millipore Corp, Billerica, Mass.). Cells were collected by centrifuging at 2000 rpm for 15 min. and the cell pellet re-suspended with 50 mM HEPES (pH 7.4) containing 1 mM EDTA and the protease inhibitors aprotinin (1 mg/ml) and leupeptin (100 μM). The suspension was sonicated at 4° C. and the cell lysate recovered after centrifuging at 12,000×g (14,600 rpm, SS34 rotor) for 20 min at 4° C. to form a crude pellet of cell debris, nuclei, peroxisomes, lysosomes, and mitochondria; the supernatant or cell lysate was used for FAAH enzyme assay. In some cases, microsomes fractions enriched in FAAH were prepared by centrifuging the cell lysate further at 27,000 rpm (100,000×g) in SW28 rotor for 50 minutes at 4° C. The pellet containing FAAH-enriched microsomes was re-suspend in 50 mM HEPES, (pH 7.4) 1 mM EDTA, and any remaining DNA sheared by passage of material through a 23 gauge needle and aliquots of enzyme were store at −80° C. prior to use.
as §2
Assays are performed on either cell lysate or microsome fractions prepared as described or in whole cell format employing either the fluorescent substrate AAMCA (Cayman chemical, Ann Arbor, Mich.,) or ^3H-anandamide ([ETHANOLAMINE-1-3H] American Radiolabeled Chemicals; 1 mCi/ml). The cell lysate or microsome assay is performed in black PerkinElmer OptiPlates-384F by adding FAAH_CHO (whole cell (human whole cell or human WC), cell lysate (human cell lysate or human LY) or microsome) in assay buffer (50 mM Phosphate, pH 8.0, 1 mM EDTA, 200 mM KCl, 0.2% glycerol, 0.1% fatty acid free BSA) to each well, followed by either DMSO or compound and allowed to incubate at 22-25° C. for fifteen minutes. AAMCA substrate was used to achieve a final concentration of 1 μM and reaction allowed to proceed at room temperature for 1-3 hours. Fluorescent release as a measure of FAAH activity was monitored by reading the plate in a Envision plate Reader (Ex: 360/40 nM; Em: 460/40 nM). Whole cell assay is conducted with cells harvested after rinsing tissue culture flasks three times with Ca^++Mg^++ free PBS, incubating for […] in Enzyme free dissociation media and centrifuging for 5 minutes at 1,000 rpm in table top centrifuge. Cells are resuspended in assay buffer at desired cell number in (4×10^4 cells/assay in 96-well format; 1×10^4 cells/assay in 384-well format) and assayed as described.

Structure (SMILES) | IC50 [1] | IC50 [2]
NS(=O)(=O)c1ccc(-c2[nH]c3ncccc3c2Sc2ccc(Cl)cn2)cc1 [Example A8, 4-{3-[(5-chloropyridin-2-yl)sulfanyl]-1H-pyrrolo[2,3-b]pyridin-2-yl}benzenesulfonamide] | 21.8 nM | 6 nM
CSc1ccc(-c2[nH]c3ncccc3c2Sc2ccc(Cl)cc2)cc1 [Example A10] | 7.67 nM | 0.872 nM
CN(C)S(=O)(=O)c1ccc(-c2[nH]c3ncccc3c2Sc2ccc(Cl)cc2)cc1 [Example A11] | 84.1 nM | 6.38 nM
OC(c1ccc(-c2[nH]c3ncccc3c2Sc2ccc(Cl)cc2)cc1)C(F)(F)F (centres unmarked) [Example A12] | 27 nM | 5.29 nM
CC(C)(O)c1ccc(-c2[nH]c3ncccc3c2Sc2ccc(Cl)cn2)cc1 [Example A13] | 73.2 nM | 17.8 nM
CSc1ccc(-c2[nH]c3ncccc3c2Sc2ccc(Cl)cn2)cc1 [Example A14] | 35.6 nM | 2.98 nM
C[S+]([O-])c1ccc(-c2[nH]c3ncccc3c2Sc2ccc(Cl)cn2)cn1 (centres unmarked) [Example A15] | 34.4 nM | 44.1 nM
CSc1ccc(-c2[nH]c3ncccc3c2Sc2ccc(Cl)cc2)cn1 [Example A16] | 24 nM | 3.08 nM
CC(C)Oc1ccc(-c2[nH]c3ncccc3c2Sc2ccc(Cl)cc2)cc1 [Example A17] | 154 nM | 11.6 nM
COCc1ccccc1-c1[nH]c2ncccc2c1Sc1ccc(Cl)cc1 [Example A19] | 1740 nM | 196 nM
CC(=O)Nc1ccc(-c2[nH]c3ncccc3c2Sc2ccc(Cl)cc2)cc1 [Example A20] | 370 nM | 110 nM
O=S(=O)(c1ccc(-c2[nH]c3ncccc3c2Sc2ccc(Cl)cn2)cc1)N1CCOCC1 [Example A21] | 370 nM | 230 nM
CC(C)(C)NS(=O)(=O)c1ccc(-c2[nH]c3ncccc3c2Sc2ccc(Cl)cc2)cc1 [Example A22] | 370 nM | 117 nM
Oc1ccc(-c2[nH]c3ncccc3c2Sc2ccc(Cl)cc2)cc1 [Example A23] | 16.4 nM | 1.65 nM
COc1ccc(-c2[nH]c3ncccc3c2Sc2ccc(Cl)cn2)cn1 [Example A24] | 128 nM | 30.4 nM
OC(c1ccc(-c2[nH]c3ncccc3c2Sc2ccc(Cl)cn2)cc1)C(F)(F)F (centres unmarked) [Example A25] | 147 nM | 37.6 nM
COC(=O)c1ccc(-c2[nH]c3ncccc3c2Sc2ccc(Cl)cc2)cc1 [Example A26] | 18.3 nM | 2.84 nM
Nc1ccc(-c2[nH]c3ncccc3c2Sc2ccc(Cl)cc2)cc1 [Example A27] | 124 nM | 5.56 nM
OC1CC=C(c2[nH]c3ncccc3c2Sc2ccc(Cl)cn2)CC1 (centres unmarked) [Example A28] | 31.6 nM and 60.4 nM | 11.8 nM and 20.5 nM
OCc1ccc(-c2[nH]c3ncccc3c2Sc2ccc(Cl)cc2)cc1 [Example A29] | 132 nM | 16.9 nM
NCc1ccc(-c2[nH]c3ncccc3c2Sc2ccc(Cl)cc2)cc1 [Example A30] | 833 nM | 56.3 nM
CC(C)(O)c1ccc(-c2[nH]c3ncccc3c2Sc2ccc(Cl)cc2)cc1 [Example A31] | 42 nM | 13.2 nM
O=C1NCc2cc(-c3[nH]c4ncccc4c3Sc3ccc(Cl)cc3)ccc21 [Example A32] | 15.1 nM | 7.84 nM
O=C1Cc2cc(-c3[nH]c4ncccc4c3Sc3ccc(Cl)cn3)ccc2N1 [Example A33] | 405 nM | 134 nM
O=C1NCc2cc(-c3[nH]c4ncccc4c3Sc3ccc(Cl)cn3)ccc21 [Example A34] | 17.1 nM | 12.3 nM
C[S+]([O-])c1ccc(-c2[nH]c3ncccc3c2Sc2ccc(Cl)cc2)cn1 (centres unmarked) [Example A36, 3-[(4-chlorophenyl)sulfanyl]-2-[6-(methylsulfinyl)pyridin-3-yl]-1H-pyrrolo[2,3-b]pyridine] | 28.9 nM | 3.35 nM
Clc1ccc(Sc2c(-c3ccc4c(c3)OCO4)[nH]c3ncccc23)cc1 [Example B4, 2-(1,3-benzodioxol-5-yl)-3-[(4-chlorophenyl)sulfanyl]-1H-pyrrolo[2,3-b]pyridine] | 4.62 nM | 0.508 nM
Clc1ccc(Sc2c(-c3ccc4c(c3)OCO4)[nH]c3ncccc23)nc1 [Example B5, 2-(1,3-benzodioxol-5-yl)-3-[(5-chloropyridin-2-yl)sulfanyl]-1H-pyrrolo[2,3-b]pyridine] | 13.7 nM | 2.58 nM
